{"source": "paper PMC8805583", "about": "“Discovery of Herbacetin as a Novel SGK1 Inhibitor to Alleviate Myocardial Hypertrophy” (Advanced Science, 2021)", "experiment_in_all_cases": "KinaseProfiler Assay, AGC kinase panel", "type_in_all_cases": "biochemical", "key": {"SGK3": {"target": "T1, SGK3 (Homo sapiens, UniProt Q96BR1)", "T1 construct": "purchased Eurofins Discovery (KinaseProfiler Service)", "T1 sequence (Q96BR1 1-496)": "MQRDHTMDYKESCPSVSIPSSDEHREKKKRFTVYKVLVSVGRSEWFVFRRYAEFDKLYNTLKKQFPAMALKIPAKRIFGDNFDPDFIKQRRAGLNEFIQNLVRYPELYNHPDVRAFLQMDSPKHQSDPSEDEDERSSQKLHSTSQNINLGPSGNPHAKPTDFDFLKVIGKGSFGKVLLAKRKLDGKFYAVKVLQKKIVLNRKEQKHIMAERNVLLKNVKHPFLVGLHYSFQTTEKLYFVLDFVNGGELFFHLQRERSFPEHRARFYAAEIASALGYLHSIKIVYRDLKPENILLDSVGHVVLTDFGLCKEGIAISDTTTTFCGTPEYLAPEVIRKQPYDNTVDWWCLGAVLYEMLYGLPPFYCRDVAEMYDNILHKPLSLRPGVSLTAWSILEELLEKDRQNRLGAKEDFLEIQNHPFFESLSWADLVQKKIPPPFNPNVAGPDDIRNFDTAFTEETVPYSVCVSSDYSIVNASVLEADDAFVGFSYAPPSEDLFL", "settings": "HBT 10 µmol; normalized by positive inhibitors", "description": "(§1) 20 structurally related flavonoids of HBT were collected, which differ in the number and position of —OH groups, and examined for their effects on SGK1 activity. Based on the docking prediction, the —OH group at the C‐4’ position of HBT was required for the interaction with the key SGK1 residue D177. Therefore, the 20 flavonoids were divided into two classes according to the presence or absence of an —OH group at C‐4’ (Figure 4B). At both tested concentrations, flavonoids with an —OH group at C‐4’ (class A) inhibited SGK1 more than those without an —OH group at C‐4’ (class B) (Figure 4C). The IC50 of each compound is listed in Figure 4D; and Figure S6 (Supporting Information). […] Conversely, the absence of an ‐OH group at C‐8 led to a greater than 10‐fold reduction in flavonoid SGK1 inhibitory activity, as shown by the performance of A1 or A4. […] The inhibitory activity of HBT (10 µmol) against 28 human AGC kinases was tested by KinaseProfiler Assay (Eurofins Discovery). The percentage of HBT's inhibitory activity against each kinase was normalized by the respective positive inhibitors of AGC kinases.\n(§2) The initial crystal structures of SGK1 (PDB entry: 3HDN, 3HDM, and 2R5T) were obtained from the Protein Data Bank (PDB). The prepared inhibitors were then docked by Glide with the extra precision (XP) scoring mode to estimate the binding affinity for each protein–ligand complex. The detailed process of docking has been described previously.^[ [46] ^] HEK293T cells were transfected with SGK1 mutant plasmids. After 24 h, cells were lysed and immunoprecipitated with anti‐FLAG antibody and beads. Immune complexes were washed with kinase buffer and incubated in kinase buffer with substrate peptide for 1 h at 30 ℃ followed by LC/MS measurement as described above. KINOMEscan Profiling Service and KinaseProfiler Service Assay were provided by Eurofins Discovery."}, "[1]": {"target": "T2, G protein-coupled receptor kinase 3 (GRK3) (Homo sapiens, UniProt P35626)", "T2 construct": "purchased Eurofins Discovery (KinaseProfiler Service)", "T2 sequence (P35626 1-688)": "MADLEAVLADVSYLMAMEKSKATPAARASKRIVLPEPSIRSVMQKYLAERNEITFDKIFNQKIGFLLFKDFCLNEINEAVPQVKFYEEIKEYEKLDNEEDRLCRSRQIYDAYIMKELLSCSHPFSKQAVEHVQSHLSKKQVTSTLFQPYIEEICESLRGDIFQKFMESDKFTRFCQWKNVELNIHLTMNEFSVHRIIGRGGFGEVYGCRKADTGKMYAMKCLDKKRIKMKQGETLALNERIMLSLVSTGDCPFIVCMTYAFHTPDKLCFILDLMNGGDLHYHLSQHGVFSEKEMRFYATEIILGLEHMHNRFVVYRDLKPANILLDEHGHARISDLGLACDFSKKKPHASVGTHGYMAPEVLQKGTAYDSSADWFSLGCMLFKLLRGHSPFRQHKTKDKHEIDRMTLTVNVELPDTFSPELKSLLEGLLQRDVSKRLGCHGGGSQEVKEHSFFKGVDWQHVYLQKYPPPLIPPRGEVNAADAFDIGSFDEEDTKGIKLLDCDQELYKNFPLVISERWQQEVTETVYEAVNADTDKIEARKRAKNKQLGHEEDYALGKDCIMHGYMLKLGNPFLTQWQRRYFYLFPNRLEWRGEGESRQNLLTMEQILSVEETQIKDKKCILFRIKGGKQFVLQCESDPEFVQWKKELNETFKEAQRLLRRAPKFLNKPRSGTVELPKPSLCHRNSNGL", "settings": "HBT 10 µmol", "description": "as §1, §2"}, "[2]": {"target": "T3, cGMP-dependent type II protein kinase (PRKG2) (Homo sapiens, UniProt Q13237)", "T3 construct": "purchased Eurofins Discovery (KinaseProfiler Service)", "T3 sequence (Q13237 1-762)": "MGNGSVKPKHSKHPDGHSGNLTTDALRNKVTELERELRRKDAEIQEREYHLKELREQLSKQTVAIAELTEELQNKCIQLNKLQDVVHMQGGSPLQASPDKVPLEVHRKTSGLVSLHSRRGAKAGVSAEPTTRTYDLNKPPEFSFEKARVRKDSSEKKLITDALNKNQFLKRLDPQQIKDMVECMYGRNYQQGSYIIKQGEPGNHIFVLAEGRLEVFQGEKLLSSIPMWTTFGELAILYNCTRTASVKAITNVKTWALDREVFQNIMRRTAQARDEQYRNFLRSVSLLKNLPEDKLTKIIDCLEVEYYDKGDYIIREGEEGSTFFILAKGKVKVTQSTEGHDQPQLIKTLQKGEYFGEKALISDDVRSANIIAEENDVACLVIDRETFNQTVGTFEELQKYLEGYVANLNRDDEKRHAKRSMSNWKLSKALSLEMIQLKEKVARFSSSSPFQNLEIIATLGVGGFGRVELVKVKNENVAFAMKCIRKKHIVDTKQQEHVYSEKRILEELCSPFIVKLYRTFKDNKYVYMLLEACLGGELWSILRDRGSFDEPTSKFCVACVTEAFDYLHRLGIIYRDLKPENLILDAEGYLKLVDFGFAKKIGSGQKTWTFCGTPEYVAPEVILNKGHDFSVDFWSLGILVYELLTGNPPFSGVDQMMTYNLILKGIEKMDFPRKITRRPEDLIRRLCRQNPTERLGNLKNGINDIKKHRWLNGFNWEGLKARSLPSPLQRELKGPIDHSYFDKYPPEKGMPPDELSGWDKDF", "settings": "HBT 10 µmol; normalized by positive inhibitors", "description": "as §1, §2"}, "[3]": {"target": "T4, catalytic subunit C-beta of PKA (PKAcβ) (Homo sapiens, UniProt P22694)", "T4 construct": "purchased Eurofins Discovery (KinaseProfiler Service)", "settings": "HBT 10 µmol", "description": "as §1, §2"}}}
{"smiles": "O=c1c(O)c(-c2ccc(O)cc2)oc2c(O)c(O)cc(O)c12", "note": "[HBT, herbacetin]", "values": [{"measurement": "inhibitory activity on SGK3", "setting": "SGK3", "result": 77, "unit": "%"}, {"measurement": "inhibitory effect on GRK3", "setting": "[1]", "result": "high inhibitory effects"}, {"measurement": "inhibitory activity on PRKG2", "setting": "[2]", "result": 45, "unit": "%"}, {"measurement": "inhibitory effect on PKAcβ", "setting": "[3]", "result": "high inhibitory effects"}]}
